# Data reported in ChEMBL document CHEMBL3046934, “Effectiveness of thiamethoxam and imidacloprid seed treatments against Bemisia tabaci (Hemiptera: Aleyrodidae) on cotton” (Pest Manag Sci, 2011).
# The source made the active and inactive calls. The calls are words filed in the database; no cut-off is given here.
# What was measured:
# Bemisia tabaci [1] = assay: Insecticidal activity against adult Bemisia tabaci (sweet potato whitefly) infested cotton leaves assessed as increase in mortality at 0.375 mg ai/seed measured 10 to 40 days post germination under green house conditions relative to untreated control; type: functional, organism-based
# Bemisia tabaci [2] = assay: Insecticidal activity against adult Bemisia tabaci (sweet potato whitefly) infested cotton leaves assessed as effect on laid eggs at 0.375 mg ai/seed measured 10 to 40 days post germination under laboratory conditions relative to untreated control; type: functional, organism-based
# Bemisia tabaci [3] = assay: Insecticidal activity against adult Bemisia tabaci (sweet potato whitefly) infested cotton leaves assessed as increase in mortality at 0.375 mg ai/seed measured 10 to 40 days post germination under laboratory conditions relative to untreated control; type: functional, organism-based
# Bemisia tabaci [4] = assay: Insecticidal activity against adult Bemisia tabaci (sweet potato whitefly) infested cotton leaves assessed as decrease in egg production at 0.375 mg ai/seed measured 10 to 40 days post germination under green house conditions relative to untreated control; type: functional, organism-based
# Bemisia tabaci [5] = assay: Insecticidal activity against nymph stage of Bemisia tabaci (sweet potato whitefly) infested cotton leaves assessed as increase in mortality at 0.375 mg ai/seed measured 2 weeks post sowing to 9 weeks under field conditions relative to untreated control; type: functional, organism-based
# Bemisia tabaci [6] = assay: Insecticidal activity against adult Bemisia tabaci (sweet potato whitefly) infested cotton leaves assessed as increase in mortality at 0.375 mg ai/seed measured 2 weeks post sowing to 9 weeks under field conditions relative to untreated control; type: functional, organism-based
# Bemisia tabaci [7] = assay: Insecticidal activity against nymph stage of Bemisia tabaci (sweet potato whitefly) infested cotton leaves assessed as mortality at 0.375 mg ai/seed measured 10 to 40 days post germination under laboratory conditions relative to untreated control; type: functional, organism-based
# Bemisia tabaci [8] = assay: Insecticidal activity against adult Bemisia tabaci (sweet potato whitefly) infested cotton leaves assessed as decrease in egg deposition at 0.375 mg ai/seed measured 10 to 40 days post germination under laboratory conditions relative to untreated control; type: functional, organism-based
# Bemisia tabaci [9] = assay: Insecticidal activity against nymph stage of Bemisia tabaci (sweet potato whitefly) infested cotton leaves assessed as increase in mortality at 0.375 mg ai/seed measured 10 to 40 days post germination under green house conditions relative to untreated control; type: functional, organism-based
# Leaf [10] = assay: Drug uptake in Gossypium hirsutum (cotton) leaf at 0.375 mg ai/seed measured 10 days post germination under green house conditions; type: ADME; conditions: in vivo, other, 240 h
# Cotyledon [11] = assay: Drug uptake in Gossypium hirsutum (cotton) cotyledon at 0.375 mg ai/seed measured 10 days post germination under green house conditions; type: ADME; conditions: in vivo, other, 240 h
# Bemisia tabaci [12] = assay: Insecticidal activity against nymph stage of Bemisia tabaci (sweet potato whitefly) infested cotton leaves assessed as increase in mortality at 0.342 mg ai/seed measured 10 to 40 days post germination under laboratory conditions relative to untreated control; type: functional, organism-based
# Cotyledon [13] = assay: Drug uptake in Gossypium hirsutum (cotton) cotyledon at 0.342 mg ai/seed measured 10 days post germination under green house conditions; type: ADME; conditions: in vivo, other, 240 h
# Bemisia tabaci [14] = assay: Insecticidal activity against adult Bemisia tabaci (sweet potato whitefly) infested cotton leaves assessed as increase in mortality at 0.342 mg ai/seed measured 10 to 40 days post germination under green house conditions relative to untreated control; type: functional, organism-based
# Bemisia tabaci [15] = assay: Insecticidal activity against nymph stage of Bemisia tabaci (sweet potato whitefly) infested cotton leaves assessed as increase in mortality at 0.342 mg ai/seed measured 10 to 40 days post germination under green house conditions relative to untreated control; type: functional, organism-based
# Bemisia tabaci [16] = assay: Insecticidal activity against adult Bemisia tabaci (sweet potato whitefly) infested cotton leaves assessed as increase in mortality at 0.342 mg ai/seed measured 10 to 40 days post germination under laboratory conditions relative to untreated control; type: functional, organism-based
# Bemisia tabaci [17] = assay: Insecticidal activity against nymph stage of Bemisia tabaci (sweet potato whitefly) infested cotton leaves assessed as increase in mortality at 0.342 mg ai/seed measured 2 weeks post sowing to 9 weeks under field conditions relative to untreated control; type: functional, organism-based
# Bemisia tabaci [18] = assay: Insecticidal activity against adult Bemisia tabaci (sweet potato whitefly) infested cotton leaves assessed as decrease in egg deposition at 0.342 mg ai/seed measured 10 to 40 days post germination under laboratory conditions relative to untreated control; type: functional, organism-based
# Bemisia tabaci [19] = assay: Insecticidal activity against adult Bemisia tabaci (sweet potato whitefly) infested cotton leaves assessed as effect on laid eggs at 0.342 mg ai/seed measured 10 to 40 days post germination under laboratory conditions relative to untreated control; type: functional, organism-based
# Leaf [20] = assay: Drug uptake in Gossypium hirsutum (cotton) leaf at 0.342 mg ai/seed measured 10 days post germination under green house conditions; type: ADME; conditions: in vivo, other, 240 h
# Bemisia tabaci [21] = assay: Insecticidal activity against adult Bemisia tabaci (sweet potato whitefly) infested cotton leaves assessed as decrease in egg production at 0.342 mg ai/seed measured 10 to 40 days post germination under green house conditions relative to untreated control; type: functional, organism-based
# Bemisia tabaci [22] = assay: Insecticidal activity against adult Bemisia tabaci (sweet potato whitefly) infested cotton leaves assessed as increase in mortality at 0.342 mg ai/seed measured 2 weeks post sowing to 9 weeks under field conditions relative to untreated control; type: functional, organism-based
compound,measurement,setting,value
O=[N+]([O-])/N=C1\NCCN1Cc1ccc(Cl)nc1,Activity,Bemisia tabaci [1],Active
same,Activity,Bemisia tabaci [2],inactive
same,Activity,Bemisia tabaci [3],Active
same,Activity,Bemisia tabaci [4],Active
same,Activity,Bemisia tabaci [5],Active
same,Activity,Bemisia tabaci [6],Active
same,Activity,Bemisia tabaci [7],Active
same,Activity,Bemisia tabaci [8],Active
same,Activity,Bemisia tabaci [9],Active
O=[N+]([O-])NC1=NCCN1Cc1ccc(Cl)nc1 [IMIDACLOPRID],Drug uptake,Leaf [10],Active
same,Drug uptake,Cotyledon [11],Active
CN1COCN(Cc2cnc(Cl)s2)/C1=N\[N+](=O)[O-] [THIAMETHOXAM],Activity,Bemisia tabaci [12],Active
same,Drug uptake,Cotyledon [13],Active
same,Activity,Bemisia tabaci [14],Active
same,Activity,Bemisia tabaci [15],Active
same,Activity,Bemisia tabaci [16],Active
same,Activity,Bemisia tabaci [17],Active
same,Activity,Bemisia tabaci [18],Active
same,Activity,Bemisia tabaci [19],inactive
same,Drug uptake,Leaf [20],Active
same,Activity,Bemisia tabaci [21],Active
same,Activity,Bemisia tabaci [22],Active
